According to patent US9868772B2 (INDIANA UNIVERSITY RESEARCH AND TECHNOLOGY CORPORATION, priority 2012, dated 2018):
Numbered stars: 1 amine (or outer) side, 2 acyl side, 3 side chain; on linkers, the order of the positions; unused ones are H or OH. Square brackets hold non-standard residues; d marks the D form. Side chains are listed from the residue outwards. Peptide text beside a SMILES is read from it. * marks the point of attachment. γGlu = O=C(O)[C@H](CCC(=O)[*:2])N[*:1]; Palmitoyl = CCCCCCCCCCCCCCCC(=O)*; Aib = CC(C)(N)C(=O)O; βAla = NCCC(=O)O

Columns and labels:
Assay in all cases: cAMP induction, firefly luciferase reporter assay in HEK293 cells co-transfected with receptor
Assay type in all cases: cell-based
GLP-1 receptor = target: T1, GLP-1 receptor (Homo sapiens, UniProt P43220)
T1 construct: expressed in transfected cells; host or cells: HEK293
Procedure: (§1) The ability of glucagon analogs to induce cAMP was measured in a firefly luciferase-based reporter assay. […] At the end of the incubation 100 microliters of LucLite luminescence substrate reagent (Perkin-Elmer, Wellesley, Mass.) were added to each well. […] Effective 50% concentrations were calculated by using Origin software (OriginLab, Northampton, Mass.

GIP receptor = target: T2, GIP receptor (Homo sapiens, UniProt P48546)
T2 construct: expressed in transfected cells; host or cells: HEK293
T2 sequence (P48546 22-466): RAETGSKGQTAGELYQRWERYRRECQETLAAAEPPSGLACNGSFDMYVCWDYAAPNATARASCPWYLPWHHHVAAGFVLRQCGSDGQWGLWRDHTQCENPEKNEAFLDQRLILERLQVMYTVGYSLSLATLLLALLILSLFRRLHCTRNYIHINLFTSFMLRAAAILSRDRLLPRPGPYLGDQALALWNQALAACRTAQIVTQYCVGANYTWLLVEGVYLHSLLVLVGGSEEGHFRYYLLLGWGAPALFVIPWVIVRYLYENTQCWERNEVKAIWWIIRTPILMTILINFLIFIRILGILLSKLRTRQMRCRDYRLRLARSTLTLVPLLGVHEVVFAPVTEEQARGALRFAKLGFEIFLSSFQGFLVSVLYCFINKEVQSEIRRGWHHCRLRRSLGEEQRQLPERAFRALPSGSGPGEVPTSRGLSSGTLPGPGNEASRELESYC
Procedure: as §1

glucagon receptor = target: T3, glucagon receptor (Homo sapiens, UniProt P47871)
T3 construct: expressed in transfected cells; host or cells: HEK293
Procedure: as §1

[1] = Table 1, analogs of SEQ ID NO: 37
[2] = Table 2, analogs of SEQ ID NO: 10
[3] = Table 3, analogs of SEQ ID NO: 12

T1 sequence (P43220 24-463): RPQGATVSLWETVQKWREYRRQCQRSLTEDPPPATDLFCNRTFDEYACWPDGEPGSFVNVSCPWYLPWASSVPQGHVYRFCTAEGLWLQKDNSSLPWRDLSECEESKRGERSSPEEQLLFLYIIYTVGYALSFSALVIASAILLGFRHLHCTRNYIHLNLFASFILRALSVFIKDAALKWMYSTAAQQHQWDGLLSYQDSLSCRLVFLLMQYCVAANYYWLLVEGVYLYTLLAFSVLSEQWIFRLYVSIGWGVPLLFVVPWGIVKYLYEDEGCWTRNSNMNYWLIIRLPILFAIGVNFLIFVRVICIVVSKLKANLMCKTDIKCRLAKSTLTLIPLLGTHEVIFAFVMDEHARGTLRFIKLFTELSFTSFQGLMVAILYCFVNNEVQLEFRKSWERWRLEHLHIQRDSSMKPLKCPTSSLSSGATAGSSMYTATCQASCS
T3 sequence (P47871 26-477): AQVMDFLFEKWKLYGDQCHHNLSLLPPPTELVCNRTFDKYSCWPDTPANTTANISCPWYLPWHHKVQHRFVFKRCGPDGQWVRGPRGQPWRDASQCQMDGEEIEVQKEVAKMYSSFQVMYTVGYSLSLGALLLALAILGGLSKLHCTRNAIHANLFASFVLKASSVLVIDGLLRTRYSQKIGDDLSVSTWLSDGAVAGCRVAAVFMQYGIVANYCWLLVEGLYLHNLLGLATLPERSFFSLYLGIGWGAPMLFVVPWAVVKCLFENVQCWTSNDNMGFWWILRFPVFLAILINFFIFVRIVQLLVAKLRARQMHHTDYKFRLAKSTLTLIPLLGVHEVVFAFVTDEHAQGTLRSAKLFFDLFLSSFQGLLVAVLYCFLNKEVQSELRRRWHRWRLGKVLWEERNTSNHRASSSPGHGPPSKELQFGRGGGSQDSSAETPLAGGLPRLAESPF

Compound	EC50 (GLP-1 receptor; [1])	EC50 (GIP receptor; [1])	EC50 (glucagon receptor; [1])	EC50 (GLP-1 receptor; [2])	EC50 (GIP receptor; [2])	EC50 (glucagon receptor; [2])	also measured
CCCCCCCCCCCCCCCC(=O)N[C@@H](CCC(=O)NCCCC[C@H](NC(=O)[C@H](CC(=O)O)NC(=O)[C@H](CO)NC(=O)[C@@H](NC(=O)[C@H](Cc1ccccc1)NC(=O)[C@@H](NC(=O)CNC(=O)[C@H](CCC(N)=O)NC(=O)C(C)(C)NC(=O)[C@@H](N)Cc1c[nH]cn1)[C@@H](C)O)[C@@H](C)O)C(=O)N[C@@H](CO)C(=O)N[C@@H](CCCCN)C(=O)N[C@@H](Cc1ccc(O)cc1)C(=O)N[C@@H](CC(C)C)C(=O)N[C@@H](CC(=O)O)C(=O)N[C@@H](CCC(=O)O)C(=O)N[C@@H](CCCNC(=N)N)C(=O)N[C@@H](C)C(=O)N[C@@H](C)C(=O)N[C@@H](CCC(N)=O)C(=O)N[C@@H](CC(=O)O)C(=O)N[C@@H](Cc1ccccc1)C(=O)N[C@H](C(=O)N[C@@H](CCC(N)=O)C(=O)N[C@@H](Cc1c[nH]c2ccccc12)C(=O)N[C@@H](CC(C)C)C(=O)N[C@@H](CC(C)C)C(=O)N[C@@H](CCC(=O)O)C(=O)NCC(=O)NCC(=O)N1CCC[C@H]1C(=O)N[C@@H](CO)C(=O)N[C@@H](CO)C(=O)NCC(=O)N[C@@H](C)C(=O)N1CCC[C@H]1C(=O)N1CCC[C@H]1C(=O)N1CCC[C@H]1C(=O)N[C@@H](CO)C(N)=O)C(C)C)C(=O)O [compound 37] (H-H[Aib]QGTFTSDK([γGlu-Palmitoyl])SKYLDERAAQDFVQWLLEGGPSSGAPPPS-NH2; N-terminus assumed)	6 pM	3 pM	9 pM				
Ac-[dY]AQGTFTSDYSKYLDERAAQDFVQWLLEAGPSSGAPPPSK([γGlu-γGlu-Palmitoyl])G-NH2 [compound 159]				9 pM	80 pM	40 pM	
CCCCCCCCCCCCCCCC(=O)N[C@@H](CCC(=O)NCCCC[C@H](NC(=O)[C@H](CC(=O)O)NC(=O)[C@H](CO)NC(=O)[C@@H](NC(=O)[C@H](Cc1ccccc1)NC(=O)[C@@H](NC(=O)CNC(=O)[C@H](CCC(=O)O)NC(=O)[C@H](C)NC(=O)[C@@H](Cc1c[nH]cn1)NC(C)=O)[C@@H](C)O)[C@@H](C)O)C(=O)N[C@@H](CO)C(=O)N[C@@H](CCCCN)C(=O)N[C@@H](Cc1ccc(O)cc1)C(=O)N[C@@H](CC(C)C)C(=O)N[C@@H](CC(=O)O)C(=O)N[C@@H](CCC(=O)O)C(=O)N[C@@H](CCCNC(=N)N)C(=O)N[C@@H](C)C(=O)N[C@@H](C)C(=O)N[C@@H](CCC(N)=O)C(=O)N[C@@H](CC(=O)O)C(=O)N[C@@H](Cc1ccccc1)C(=O)N[C@H](C(=O)N[C@@H](CCC(N)=O)C(=O)N[C@@H](Cc1c[nH]c2ccccc12)C(=O)N[C@@H](CC(C)C)C(=O)N[C@@H](CC(C)C)C(=O)N[C@@H](CCC(=O)O)C(=O)NCC(=O)NCC(=O)N1CCC[C@H]1C(=O)N[C@@H](CO)C(=O)N[C@@H](CO)C(=O)NCC(=O)N[C@@H](C)C(=O)N1CCC[C@H]1C(=O)N1CCC[C@H]1C(=O)N1CCC[C@H]1C(=O)N[C@@H](CO)C(N)=O)C(C)C)C(=O)O [compound 148]				2 pM	7 pM	178 pM	
CCCCCCCCCCCCCCCC(=O)N[C@@H](CCC(=O)NCCCC[C@H](NC(=O)[C@H](CC(=O)O)NC(=O)[C@H](CO)NC(=O)[C@@H](NC(=O)[C@H](Cc1ccccc1)NC(=O)[C@@H](NC(=O)CNC(=O)[C@H](CCC(N)=O)NC(=O)[C@H](C)NC(=O)[C@@H](Cc1ccc(O)cc1)NC(C)=O)[C@@H](C)O)[C@@H](C)O)C(=O)N[C@@H](CO)C(=O)N[C@@H](CCCCN)C(=O)N[C@@H](Cc1ccc(O)cc1)C(=O)N[C@@H](CC(C)C)C(=O)N[C@@H](CC(=O)O)C(=O)N[C@@H](CCC(=O)O)C(=O)N[C@@H](CCCNC(=N)N)C(=O)N[C@@H](C)C(=O)N[C@@H](C)C(=O)N[C@@H](CCC(N)=O)C(=O)N[C@@H](CC(=O)O)C(=O)N[C@@H](Cc1ccccc1)C(=O)N[C@H](C(=O)N[C@@H](CCC(N)=O)C(=O)N[C@@H](Cc1c[nH]c2ccccc12)C(=O)N[C@@H](CC(C)C)C(=O)N[C@@H](CC(C)C)C(=O)N[C@@H](CCC(=O)O)C(=O)N[C@@H](C)C(=O)NCC(=O)N1CCC[C@H]1C(=O)N[C@@H](CO)C(=O)N[C@@H](CO)C(=O)NCC(=O)N[C@@H](C)C(=O)N1CCC[C@H]1C(=O)N1CCC[C@H]1C(=O)N1CCC[C@H]1C(=O)N[C@@H](CO)C(N)=O)C(C)C)C(=O)O [compound 146] (Ac-[dY]AQGTFTSDK([γGlu-Palmitoyl])SKYLDERAAQDFVQWLLEAGPSSGAPPPS-NH2)							EC50 (GLP-1 receptor; [3]): 7 pM; EC50 (GIP receptor; [3]): 6 pM; EC50 (glucagon receptor; [3]): 9 pM
CCCCCCCCCCCCCCCC(=O)N[C@@H](CCC(=O)NCCCC[C@H](NC(=O)[C@H](CC(=O)O)NC(=O)[C@H](CO)NC(=O)[C@@H](NC(=O)[C@H](Cc1ccccc1)NC(=O)[C@@H](NC(=O)CNC(=O)[C@H](CCC(N)=O)NC(=O)CCNC(=O)[C@@H](N)Cc1c[nH]cn1)[C@@H](C)O)[C@@H](C)O)C(=O)N[C@@H](CO)C(=O)N[C@@H](CCCCN)C(=O)N[C@@H](Cc1ccc(O)cc1)C(=O)N[C@@H](CC(C)C)C(=O)N[C@@H](CC(=O)O)C(=O)N[C@@H](CCC(=O)O)C(=O)N[C@@H](CCCNC(=N)N)C(=O)N[C@@H](C)C(=O)N[C@@H](C)C(=O)N[C@@H](CCC(N)=O)C(=O)N[C@@H](CC(=O)O)C(=O)N[C@@H](Cc1ccccc1)C(=O)N[C@H](C(=O)N[C@@H](CCC(N)=O)C(=O)N[C@@H](Cc1c[nH]c2ccccc12)C(=O)N[C@@H](CC(C)C)C(=O)N[C@@H](CC(C)C)C(=O)N[C@@H](CCC(=O)O)C(=O)NCC(=O)NCC(=O)N1CCC[C@H]1C(=O)N[C@@H](CO)C(=O)N[C@@H](CO)C(=O)NCC(=O)N[C@@H](C)C(=O)N1CCC[C@H]1C(=O)N1CCC[C@H]1C(=O)N1CCC[C@H]1C(=O)N[C@@H](CO)C(N)=O)C(C)C)C(=O)O [compound 26] (H-H[βAla]QGTFTSDK([γGlu-Palmitoyl])SKYLDERAAQDFVQWLLEGGPSSGAPPPS-NH2)	2 pM	71 pM	95 pM				
CCCCCCCCCCCCCCCC(=O)N[C@@H](CCC(=O)NCCCC[C@H](NC(=O)[C@H](CC(=O)O)NC(=O)[C@H](CO)NC(=O)[C@@H](NC(=O)[C@H](Cc1ccccc1)NC(=O)[C@@H](NC(=O)CNC(=O)[C@@H](CCC(N)=O)NC(=O)[C@H](C)NC(=O)[C@H](Cc1ccc(O)cc1)NC(C)=O)[C@@H](C)O)[C@@H](C)O)C(=O)N[C@@H](CO)C(=O)N[C@@H](CCCCN)C(=O)N[C@@H](Cc1ccc(O)cc1)C(=O)N[C@@H](CC(C)C)C(=O)N[C@@H](CC(=O)O)C(=O)N[C@@H](CCC(=O)O)C(=O)N[C@@H](CCCNC(=N)N)C(=O)N[C@@H](C)C(=O)N[C@@H](C)C(=O)N[C@@H](CCC(N)=O)C(=O)N[C@@H](CC(=O)O)C(=O)N[C@@H](Cc1ccccc1)C(=O)N[C@H](C(=O)N[C@@H](CCC(N)=O)C(=O)N[C@@H](Cc1c[nH]c2ccccc12)C(=O)N[C@@H](CC(C)C)C(=O)N[C@@H](CC(C)C)C(=O)N[C@@H](CCC(=O)O)C(=O)NCC(=O)NCC(=O)N1CCC[C@H]1C(=O)N[C@@H](CO)C(=O)N[C@@H](CO)C(=O)NCC(=O)N[C@@H](C)C(=O)N1CCC[C@H]1C(=O)N1CCC[C@H]1C(=O)N1CCC[C@H]1C(=O)N[C@@H](CO)C(N)=O)C(C)C)C(=O)O [compound 158] (Ac-YA[dQ]GTFTSDK([γGlu-Palmitoyl])SKYLDERAAQDFVQWLLEGGPSSGAPPPS-NH2)				349 pM	69 pM	416 pM	
CCCCCCCCCCCCCCCC(=O)N[C@@H](CCC(=O)NCCCC[C@H](NC(=O)[C@H](CC(=O)O)NC(=O)[C@H](CO)NC(=O)[C@@H](NC(=O)[C@H](Cc1ccccc1)NC(=O)[C@@H](NC(=O)CNC(=O)[C@H](CCC(N)=O)NC(=O)[C@@H]1CCCN1C(=O)[C@H](N)Cc1c[nH]cn1)[C@@H](C)O)[C@@H](C)O)C(=O)N[C@@H](CO)C(=O)N[C@@H](CCCCN)C(=O)N[C@@H](Cc1ccc(O)cc1)C(=O)N[C@@H](CC(C)C)C(=O)N[C@@H](CC(=O)O)C(=O)N[C@@H](CCC(=O)O)C(=O)N[C@@H](CCCNC(=N)N)C(=O)N[C@@H](C)C(=O)N[C@@H](C)C(=O)N[C@@H](CCC(N)=O)C(=O)N[C@@H](CC(=O)O)C(=O)N[C@@H](Cc1ccccc1)C(=O)N[C@H](C(=O)N[C@@H](CCC(N)=O)C(=O)N[C@@H](Cc1c[nH]c2ccccc12)C(=O)N[C@@H](CC(C)C)C(=O)N[C@@H](CC(C)C)C(=O)N[C@@H](CCC(=O)O)C(=O)NCC(=O)NCC(=O)N1CCC[C@H]1C(=O)N[C@@H](CO)C(=O)N[C@@H](CO)C(=O)NCC(=O)N[C@@H](C)C(=O)N1CCC[C@H]1C(=O)N1CCC[C@H]1C(=O)N1CCC[C@H]1C(=O)N[C@@H](CO)C(N)=O)C(C)C)C(=O)O [compound 27] (H-[dH]PQGTFTSDK([γGlu-Palmitoyl])SKYLDERAAQDFVQWLLEGGPSSGAPPPS-NH2; N-terminus assumed)	3 pM	80 pM	34 pM				
